Like-named read-outs stand apart in the source and are kept apart here.
Tests used:
EtfABCX [1] = target: T1, EtfABCX (Thermotoga maritima, UniProt Q9X1L6+Q9X1L7+Q9X1L8); assay: FAD released by […] SDS and quantified by absorbance; format: binding; settings: co-purified; BF-FAD in EtfA, ET-FAD in EtfB, QR-FAD in EtfC
T1 construct: gene TM_1530; operon in pET-21a(+), N-terminal 9xHis tag, E. coli BL21(DE3) deltaiscR, anaerobic purification; superdimer (ABCX)2, 257 kDa, three FAD per supermonomer; with Ferredoxin-like protein FixX (EtfX; two [4Fe-4S] clusters)
T1 sequence (Q9X1L6 2-285): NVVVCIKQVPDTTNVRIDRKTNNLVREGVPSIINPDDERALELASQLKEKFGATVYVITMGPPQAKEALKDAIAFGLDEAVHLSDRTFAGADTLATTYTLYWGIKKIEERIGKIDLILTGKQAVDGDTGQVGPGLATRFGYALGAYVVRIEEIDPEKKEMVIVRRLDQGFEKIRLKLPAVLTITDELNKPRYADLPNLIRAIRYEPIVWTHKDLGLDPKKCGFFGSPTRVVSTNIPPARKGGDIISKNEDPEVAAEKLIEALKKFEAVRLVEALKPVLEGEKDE
T1 sequence (Q9X1L7 1-338): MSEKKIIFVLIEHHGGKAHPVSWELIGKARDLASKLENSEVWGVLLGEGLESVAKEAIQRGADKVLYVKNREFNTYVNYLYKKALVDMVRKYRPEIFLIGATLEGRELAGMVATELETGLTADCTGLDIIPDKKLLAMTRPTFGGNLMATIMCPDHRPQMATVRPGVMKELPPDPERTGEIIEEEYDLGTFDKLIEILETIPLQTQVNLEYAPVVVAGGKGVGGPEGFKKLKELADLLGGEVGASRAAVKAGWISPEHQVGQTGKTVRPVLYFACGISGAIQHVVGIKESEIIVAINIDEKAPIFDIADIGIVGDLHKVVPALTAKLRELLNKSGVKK
T1 sequence (Q9X1L8 1-438): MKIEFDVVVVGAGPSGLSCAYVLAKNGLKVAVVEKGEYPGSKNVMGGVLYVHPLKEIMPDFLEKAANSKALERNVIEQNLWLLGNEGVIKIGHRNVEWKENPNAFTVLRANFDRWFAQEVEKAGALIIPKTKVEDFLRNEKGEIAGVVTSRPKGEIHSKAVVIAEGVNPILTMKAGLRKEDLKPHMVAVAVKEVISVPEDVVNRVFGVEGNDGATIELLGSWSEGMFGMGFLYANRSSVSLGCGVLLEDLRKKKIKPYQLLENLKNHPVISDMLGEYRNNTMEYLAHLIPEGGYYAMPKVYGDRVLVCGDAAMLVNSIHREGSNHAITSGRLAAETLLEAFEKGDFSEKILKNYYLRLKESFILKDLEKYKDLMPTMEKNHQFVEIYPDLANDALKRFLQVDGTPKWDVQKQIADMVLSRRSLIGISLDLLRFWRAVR
T1 sequence (Q9X1L9 1-92 partner): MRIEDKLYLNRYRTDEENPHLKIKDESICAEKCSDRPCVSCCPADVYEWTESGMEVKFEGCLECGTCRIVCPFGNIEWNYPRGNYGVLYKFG

EtfAB [2] = target: T2, EtfAB (Thermotoga maritima, UniProt Q9X1L6+Q9X1L7); assay: FAD released by […] SDS and quantified by absorbance; format: binding; settings: co-purified; BF-FAD site in EtfA and ET-FAD site in EtfB
T2 construct: gene TM_1530; recombinant EtfAB heterodimer from E. coli BL21(DE3) deltaiscR, 9xHis tag, 69 kDa expected, two FAD per heterodimer, purified anaerobically
T2 sequence (Q9X1L6 entry or part of it): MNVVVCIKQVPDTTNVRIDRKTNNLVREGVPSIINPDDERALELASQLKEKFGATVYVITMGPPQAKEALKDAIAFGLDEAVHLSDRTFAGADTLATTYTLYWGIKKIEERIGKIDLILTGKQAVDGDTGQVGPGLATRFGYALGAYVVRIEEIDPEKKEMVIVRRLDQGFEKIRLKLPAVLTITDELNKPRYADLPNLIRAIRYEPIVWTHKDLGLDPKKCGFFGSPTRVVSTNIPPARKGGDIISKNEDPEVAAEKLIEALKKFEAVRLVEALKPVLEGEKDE
T2 sequence (Q9X1L7 entry or part of it): as the sequence (Q9X1L7 1-338) above

EtfABCX [3] = target: T1, EtfABCX; assay: anaerobic SEC-MALS-SAXS with in-line UV-visible spectroscopy; format: binding; settings: NAD+ in running buffer, 20 mM Tris-HCl pH 8.0, 200 mM NaCl, 0.01% DDM
EtfAB [4] = target: T2, EtfAB; assay: anaerobic SEC-SAXS with in-line UV-visible spectroscopy (flavin reduction, compaction); format: binding; settings: 20 mM Tris-HCl pH 8.0, 200 mM NaCl, room temperature
[5] = target: Thermotoga maritima Fix/EtfABCX supermonomer (ABCX heterotetramer protomer) (Thermotoga maritima); assay: SEC-MALS + other: SEC-SAXS; anaerobic SEC-MALS-SAXS of purified EtfABCX; KW-803 column, room temperature, 0.65 mL/min; 20 mM Tris-HCl pH 8.0, 200 mM NaCl with 0.01% DDM (also buffer only); no additive, NADH, NAD+ or DT in the running buffer
[6] = target: Thermotoga maritima Fix/EtfABCX supermonomer (ABCX heterotetramer protomer) (Thermotoga maritima); assay: as above; remark: listed apart in the source

## Cc1cc2nc3c(=O)[nH]c(=O)nc-3n(C[C@H](O)[C@H](O)[C@H](O)COP(=O)(O)OP(=O)(O)OC[C@H]3O[C@@H](n4cnc5c(N)ncnc54)[C@H](O)[C@@H]3O)c2cc1C [FAD]
EtfABCX [1]
  FAD released by 1% SDS and quantified by absorbance: approximately three and two molecules of FAD per EtfABCX supermonomer and EtfAB heterodimer, respectively
EtfAB [2]
  FAD released by 1% SDS and quantified by absorbance: approximately three and two molecules of FAD per EtfABCX supermonomer and EtfAB heterodimer, respectively

## NC(=O)c1ccc[n+]([C@@H]2O[C@H](COP(=O)(O)OP(=O)(O)OC[C@H]3O[C@@H](n4cnc5c(N)ncnc54)[C@H](O)[C@@H]3O)[C@@H](O)[C@H]2O)c1 [NAD^+]
EtfABCX [3]
  anaerobic SEC-MALS-SAXS with in-line UV-visible spectroscopy: likely due to the formation of an EtfABCX-NAD^+ complex
EtfAB [4]; excess NAD+ in running buffer, as-purified enzyme
  anaerobic SEC-SAXS with in-line UV-visible spectroscopy (flavin reduction, compa): EtfAB in the presence of NAD^+ led the enzyme into a more extended state

## NC(=O)C1=CN([C@@H]2O[C@H](COP(=O)(O)OP(=O)(O)OC[C@H]3O[C@@H](n4cnc5c(N)ncnc54)[C@H](O)[C@@H]3O)[C@@H](O)[C@H]2O)C=CC1 [NADH]
EtfAB [4]; excess NADH in running buffer
  anaerobic SEC-SAXS with in-line UV-visible spectroscopy (flavin reduction, compa): EtfAB in the presence of excess NADH indicated that its FAD cofactors were fully reduced

## Thermotoga maritima Fix/EtfABCX supermonomer (ABCX heterotetramer protomer) (complex)
[5]
  stoichiometry N: 4
[6]
  stoichiometry N: 2

— publication PMC10765413, “Correlating Conformational Equilibria with Catalysis in the Electron Bifurcating EtfABCX of Thermotoga maritima” (Biochemistry, 2023)
